# From patent US20250375473A1, “Pharmaceutical composition for treating cancer comprising an ionic compound having metal ion binding thereto” (METAFINES.CO.LTD., priority 2018, published 2025)
# Values joined by “and” are separate entries in the source; they are usually repeats but may differ in a detail not shown here. Equal values may be shown once.
# How the values were obtained:
# [1] = tested on: pancreatic cancer cell line (PANC-1); assay: MTT assay, 48 h, PANC-1; details: 48 h, MTT
# Protocol: (§7) 7 cell lines were aliquoted to each well of a 96-well plate at 5×10^3 cells, and cultured for 24 hours. […] The drug-treated cells were cultured in an incubator (37° C., 5% CO2) for 48 hours, and 5 mg/ ? MTT reagent 10 ? was added to each well and cultured for additional 4 hours. Then, culture medium was removed and DMSO 100 ? was treated to dissolve the MTT stained precipitate, and absorbance was measured at 540 nm with a microplate reader.
# [2] = tested on: brain cancer cell line (U87MG); assay: MTT assay, 72 h, brain cancer cell line; format: cell-based; details: U87MG, MTT
# Protocol: (§1) The calcium salts of Examples 1 to 3 were added to each well by concentration (20 mg/ ? , mg/ ? , 0.8 mg/ ? , 0.16 mg/ ? , 0.032 mg/ ? , 0.0064 mg/ ? , 0.00128 mg/ ? , 0.000256 mg/ ? ). […] The supernatant was removed using a centrifuge, DMSO 200 ? was added to each well to dissolve the MTT stained precipitate, and OD540 value was measured at 540 nm with an ELISA reader.
# [3] = Maintenance of hetero salt form in aqueous solution (MS); format: physicochemical; details: added to water
# [4] = GLP toxicity studies (NOAEL), intravenous and oral; format: in vivo
# Protocol: In detail, the ionic compound is administered in a dose ranging from 1.61 mg/kg to 64.86 mg/kg based on body weight of the subject. Reflecting the results of actual nonclinical efficacy, toxicity and clinical phase 1 PK/PD (pharmacokinetics/pharmacodynamics) studies, the clinically effective doses are expected to be in the HED (Human Equivalent Dose) ranges 1.61 mg/kg for intravenous administration and 7.22 mg/kg for oral administration-up to a maximum of 32.43 mg/kg for intravenous administration and 64.86 mg/kg for oral administration.
# [5] = tested on: DLD-1 cell; assay: IC50 of each drug alone, 48 h, DLD-1; format: cell-based
# Protocol: (§2) Then, various concentration of Example or chemical anticancer drugs (Fluorouracil (5-FU), SN-38, Paclitaxel (PTX)) were treated thereto alone.
# [6] = tested on: DLD-1; assay: Hetero salts vs homo salts, cell viability and cytotoxicity, DLD-1; format: cell-based; details: DLD-1; 10 mM
# Protocol: (§3) Hetero salts prepared according to the examples (ASCA101, ASCA201) and homo salts were applied to colorectal cancer cell lines, and their effects on cell viability and cytotoxicity were evaluated.
# (§4) Herein, “Na-ASC” refers to sodium ascorbate, “Na-DCA” refers to sodium dichloroacetate, “Ca (ASC) 2” refers to calcium ascorbate, “Ca (DCA) 2” refers to calcium dichloroacetate, and “Ca (LA) 2” refers to calcium lactate.
# [7] = tested on: human colorectal cancer cell lines (HCT-116 and HT-29); assay: Change in ascorbic acid level in cancer cells; format: cell-based; details: 1 mM; 24 h; lysate; vs untreated control
# Protocol: After culture, the cultured cancer cells were pulverized with a homogenizer and centrifuged, and the concentration of ascorbic acid contained in the lysate was measured using an ascorbic acid assay kit (Biovision, San Francisco, CA).
# [8] = ASCA101 in beagle dog plasma after intravenous administration (LC-MS/MS); format: in vivo
# [9] = tested on: breast cancer cell line (MDA-MB-231); assay: MTT assay, 72 h, breast cancer cell line; format: cell-based; details: MDA-MB-231; 72 h; MTT
# Protocol: as §1
# [10] = tested on: colorectal cancer cell line (HCT-116); assay: MTT assay, 48 h, HCT-116; details: 48 h; MTT; value in brackets
# Protocol: as §7
# [11] = tested on: DLD-1 cells transplanted into the colon; assay: Colorectal cancer mouse model (DLD-1 orthotopic model); format: in vivo; details: 100 mg/kg IV once a day (Qdx4) for 1 week; dissected after 1 week; vs control
# Protocol: (§5) In order to construct an animal model with orthotopic xenotransplantation (orthotopic xenograft) and general animal model (orthotopic xenograft), A549/LUC cells and DLD-1 cells were subcultured, and then the cancer cells were injected into the lung and colon of the mice, respectively.
# (§6) Since the model was directly injected with cancer cells into the mouse organ, the growth of cancer was not confirmed by observation of the mouse appearance. Therefore, in the animal model to which A549/LUC cells were injected, D-Luciferin was injected intraperitoneally every 7 days to determine the growth saturation of cancer by luminescence imaging measurement using IVIS spectrum imaging system (Xenogen) device. On the other hand, in the animal model to which DLD-1 cells were injected, after 7 days, the experimental subjects were sacrificed to determine the growth saturation of cancer.
# In other words, general DLD-1 cells were transplanted into the colon to construct a colorectal cancer mouse model (DLD-1 orthotopic model), and orthotopic xenotransplantation was conducted to the lung to construct a lung cancer mouse model (A549/LUC orthotopic model).
# Further, weight of cancer tissue was measured to confirm the anticancer efficacy of the inventive substance in vivo and the results are shown in FIG. 19B.
# [12] = tested on: colorectal cancer cell line (DLD-1); assay: MTT assay, 72 h, colorectal cancer cell line; format: cell-based; details: DLD-1; 72 h; MTT
# Protocol: as §1
# [13] = tested on: A549/LUC cells implanted into the lung; assay: Lung cancer mouse model (A549/LUC orthotopic model); format: in vivo; details: 100 mg/kg IV once a day (Qdx4) for 5 weeks; vs control
# Protocol: as §5
# as §6, with “cancer. […]” for “cancer.”
# The calcium salts of Examples 1 to 3 were administered to the same mouse model constructed in Test Example 5-1 (A549/LUC orthotopic model), respectively. […] Further, in order to quantify each imaging result more accurately, in vivo images were obtained by measuring ROI (Region of Interest), which is a program of IVIS spectrum (Xenogen), and the results are shown in FIG. 21.
# [14] = tested on: liver cancer cell line (HepG2); assay: MTT assay, 48 h, HepG2; details: 48 h, MTT
# Protocol: as §7
# [15] = tested on: colorectal cancer cell line (HT-29); assay: MTT assay, 48 h, HT-29; details: 48 h, MTT
# Protocol: as §7
# [16] = tested on: HCT-116 cell; assay: Co-treatment with chemical anticancer drug, growth inhibition and combinational index; details: 48 h, co-treated with Paclitaxel, PTX (μM) in c0 and Example 1 (μM) in c1 of the row
# Excerpt: As the co-delivery effect, the synergistic effect was CI≤0.85, the additive effect was 0.85<CI≤1.15, and the antagonistic effect was CI>1.15.
# [17] = tested on: poly (ADP-ribose) polymerase 1 (PARP-1); assay: Western blot, PARP-1 expression in HCT-116; format: cell-based, human; details: 24 h
# Protocol: The cultured cancer cells were pulverized with a homogenizer and centrifuged, and the expression levels of poly (ADP-ribose) polymerase 1 (PARP-1), β-catenin, VEGF and β-actin proteins contained in the lysate were measured using Western blot.
# [18] = tested on: stomach cancer cell line (SNU-638); assay: MTT assay, 48 h, SNU-638; details: 48 h, MTT
# Protocol: as §7
# [19] = tested on: HT-29 cell; assay: IC50 of each drug alone, 48 h, HT-29; format: cell-based, human
# Protocol: as §2
# [20] = tested on: ovarian cancer cell line (A2780); assay: MTT assay, 48 h, A2780; details: 48 h, MTT
# Protocol: as §7
# [21] = tested on: lung cancer cell line (A-549); assay: MTT assay, 48 h, A549; details: 48 h, MTT
# Protocol: as §7
# [22] = tested on: HCT-116 cell; assay: IC50 of each drug alone, 48 h, HCT-116; format: cell-based, human; details: read-out: IC50 value, HCT-116 cell
# Protocol: as §2
# [23] = tested on: SW480; assay: Hetero salts vs homo salts, cell viability and cytotoxicity, SW480; format: cell-based; details: SW480; 5 mM
# Protocol: as §3, §4
# [24] = tested on: PDH enzyme; assay: Time-dependent PDH enzyme activity in cancer cells; format: cell-based; details: DLD-1 and HT-29 cancer cells; FIG. 29
# [25] = ASCA101 in rat plasma after intravenous administration (LC-MS/MS); format: in vivo; details: 0.083 hours after intravenous administration
structure (smiles),measurement,setting,value
"O=C([O-])C(Cl)Cl.O=C1O[C@H]([C@@H](O)CO)C([O-])=C1O.[Ca+2] [Example 1, calcium salts of dichloroacetic acid and ascorbic acid]",IC50 of PANC-1 Pancreatic cancer (mg/ml),[1]; value in brackets,(0.14) mg/ml
same,IC50,[1]; read-out: IC50 mM of PANC-1 Pancreatic cancer,0.42 mM
same,IC50 of Brain cancer cell line,[2],500 µg/mL
same,retention of hetero salt structure in aqueous solution (MS peaks),[3],can retain its hetero salt structure in aqueous solution
same,"human equivalent dose (HED) from NOAEL with safety factor of 10, intravenous",[4]; intravenous route,1.61 mg/kg
same,"human equivalent dose (HED) from NOAEL with safety factor of 10, oral",[4]; oral route,7.22 mg/kg
same,IC50,[5],360 µM
same,"cell viability, DLD-1 (10 mM)",[6],11.43
same,ascorbic acid concentration in cancer cells,[7],increased
same,ASCA101 concentration in beagle dog plasma,[8]; 0.083 hours after intravenous administration,26.835 µg/mL
same,maintenance of hetero salt form in plasma / liquid medium,[8]; plasma of rats and beagles after intravenous administration,the hetero salt form was maintained in the bloodstream
same,IC50 of Breast cancer cell line,[9],40 µg/mL
same,IC50 of HCT-116 Colorectal cancer cell line (mg/ml),[10],(0.12) mg/ml
same,growth of cancer cells / weight of cancer tissue,[11],significantly suppressed growth of cancer cells
same,IC50 of Colorectal cancer cell line,[12],70 µg/mL
same,"anticancer efficacy and metastasis (luminescence imaging, ROI)",[13],the growth and metastasis of cancer tissues was not shown at all
same,IC50 of HepG2 Liver cancer (mg/ml),[14]; value in brackets,(0.72) mg/ml
same,IC50,[14]; read-out: IC50 mM of HepG2 Liver cancer,2.1 mM
same,IC50 of HT-29 Colorectal cancer cell line (mg/ml),[15]; value in brackets,(0.29) mg/ml
same,IC50,[15]; read-out: IC50 mM of HT-29 Colorectal cancer cell line,0.83 mM
same,Inhibition effect (%),[16],73.298% and 63.569%
same,concentration at which expression level of full length PARP-1 was decreased the most,[17],0.18 mg/mL
same,IC50 of SNU-638 Stomach cancer (mg/ml),[18]; value in brackets,(0.48) mg/ml
same,IC50,[18]; read-out: IC50 mM of SNU-638 Stomach cancer,1.4 mM
same,IC50,[19],1330 µM
same,IC50 of A2780 Ovarian cancer (mg/ml),[20]; value in brackets,(0.06) mg/ml
same,IC50,[20]; read-out: IC50 mM of A2780 Ovarian cancer,0.17 mM
same,IC50 of A549 Lung cancer (mg/ml),[21]; value in brackets,(0.79) mg/ml
same,IC50,[21]; read-out: IC50 mM of A549 Lung cancer,2.3 mM
same,IC50,[22],311 µM
same,"cell viability, SW480 (5 mM)",[23],20.72
same,time-dependent PDH activity,[24],"greater increase in PDH activity during the first 6 hours, with the activity remaining relatively stable beyond 6 hours"
same,ASCA101 concentration in rat plasma,[25],26.835 µg/mL
